# Reference: patent publication US7825096B2, “O6-alkylguanine-DNA alkyltransferase inactivators and beta-glucuronidase cleavable prodrugs” (The United States of America as represented by the …, priority 2004, dated 2010)
# Counter-ions that a name gives are not always drawn.
# How the values were obtained:
# [1] = Solubility in water; format: physicochemical; conditions: for solubility: water
# [2] = system: HT29 cells; experiment: HT29 cell killing by BCNU after drug pretreatment, colony-forming assay; format: cell-based; conditions: for HT29 cell killing by BCNU after prodrug without β-glucuronidase: 5 hr prodrug, no β-glucuronidase, then two-hour 40 μM BCNU; for HT29 cell killing by BCNU after prodrug without β-glucuronidase / HT29 cell killing by BCNU after prodrug with β-glucuronidase: FIG. 3; for HT29 cell killing by BCNU after prodrug with β-glucuronidase: bovine liver β-glucuronidase 20 units/mL of medium, 7 or 14 hr (1), 14 hr (2), then 2 hr 40 μM BCNU
# Procedure: HT29 cells were grown in RPMI 1640 medium in the presence of 10% fetal bovine serum. The effect of alkyltransferase inactivators on the sensitivity of cells to BCNU was determined using a colony-forming assay. Cells were plated at a density of 10^6 in 25 cm^2 flasks and 24 h later were incubated with different concentrations of prodrugs for the time indicated before exposure to 40 μM BCNU for 2 hr. For experiments involving β-glucuronidase, the bovine liver protein was added to the cell cultures at 20 units/mL of medium and incubated along with the prodrug. BCNU was dissolved in absolute ethanol at a concentration of 8 mM. It was diluted with the same volume of ice-cold phosphate-buffered saline, and was immediately administered to cells. After two hr, the medium was replaced with fresh medium and the cells were left to grow for an additional 16-18 h. The cells were then replated at densities of 250 cells per 25 cm^2 flask and grown for 8 days until discrete colonies had formed. The colonies were washed with 0.9% saline solution, stained with 0.5% crystal violet in ethanol, and counted. The plating efficiency of cells not treated with drugs was about 50%.
# [3] = Stability under acidic conditions; format: physicochemical
# [4] = molecular target: T1, human O^6-alkylguanine-DNA alkyltransferase (Homo sapiens, UniProt P16455); experiment: Inactivation of purified recombinant human alkyltransferase (AGT) in vitro, [3H]-methylated DNA substrate; format: biochemical; conditions: for IC50: absence of β-glucuronidase, 30 min at 37° C., FIG. 2, read-out: inactivation of human AGT: concentration up to which inactive; for alkyltransferase inactivation in the presence of bovine liver β-glucuronidase: incubation with bovine liver β-glucuronidase (20 or 200 units/mL) for 30 min, FIG. 2A/2B
# T1 sequence (P16455 1-207): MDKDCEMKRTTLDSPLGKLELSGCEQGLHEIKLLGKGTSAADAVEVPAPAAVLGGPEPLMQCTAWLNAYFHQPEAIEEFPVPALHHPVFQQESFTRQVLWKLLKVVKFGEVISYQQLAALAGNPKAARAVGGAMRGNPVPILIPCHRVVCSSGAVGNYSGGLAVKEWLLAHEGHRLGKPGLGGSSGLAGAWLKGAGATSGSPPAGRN
# Procedure: Purified recombinant human alkyltransferase was incubated with different concentrations of prodrugs in 0.5 mL of reaction buffer (50 mM Tris-HCl, pH 7.6, 0.1 mM EDTA, 5.0 mM dithiothreitol) containing 50 μg of hemocyanin for 30 min at 37° C. For experiments involving β-glucuronidase, the bovine liver protein, prodrugs and alkyltransferase were incubated together in the above hemocyanin-containing buffer for 30 min at 37° C. The remaining alkyltransferase activity was determined after incubation with a [^3H]-methylated calf thymus DNA substrate for 30 min at 37° C. by measuring the [^3H]-methylated methylated protein formed, which was collected on nitrocellulose filters. The results were expressed as the percentage of the alkyltransferase activity remaining.
# [5] = Stability (first-order hydrolysis) of prodrugs in aqueous buffers at 37° C., HPLC; format: physicochemical; conditions: for Observed first order rate constant for hydrolysis, kTris: 50 mM Tris-HCl (pH 7.5), 5 mM dithiothreitol, 0.1 mM EDTA; for Observed first order rate constant for hydrolysis, kTris / Observed first order rate constant for hydrolysis, kMOPS / Observed first order rate constant for hydrolysis, kDulbecco: 37° C.; for Observed first order rate constant for hydrolysis, kMOPS: 50 mM morpholinopropane sulfonic acid, pH 7.0, 0.01% NaCl; for Observed first order rate constant for hydrolysis, kPBS: Phosphate buffered saline, pH 7.2, 37° C.; for Observed first order rate constant for hydrolysis, kDulbecco: modified Dulbecco's medium
# Procedure: Prodrug purity of the prodrugs was determined by HPLC on a Hewlett-Packard LC 1090 Series II system equipped with a Phenomenex 250×4 mm column (5 μm particle size) eluted isocratically at 1 mL/min with acetonitrile/0.1 M triethylammonium acetate (TEAA), pH 7.0, (3:7). Aliquots (100 μL) from prodrug solutions were withdrawn and diluted with 100 μL of a solution of p-nitrobenzyl alcohol (an internal standard) in acetonitrile/0.1 M TEAA (6:4). UV detection was at 254 and 280 nm. Retention times for 1, 2, O^6-benzylguanine, O^6-benzyl-2′-deoxyguanosine and p-nitrobenzyl alcohol were 5.20, 4.97, 7.13, 7.18 and 8.64 min, respectively. All determinations were carried out in duplicate or triplicate.
# The stability of the prodrugs was determined in phosphate buffered saline (pH 7.2) (Life Techologie, Inc), a Tris buffer containing 50 mM Tris-HCl (pH 7.5) (Life Technologies, Inc), 5 mM dithiothreitol and 0.1 mM EDTA, a MOPS buffer (pH 7.0) containing 50 mM morpholinopropane sulfonic acid, […] Dulbecco's medium prepared by combining 400 mL of Dulbecco's medium with 7 mL of 7.5% NanCO3, 4 mL of 15 mM glutamine, 2 mL gentamicin and 40 mL of fetal calf serum. Solutions were incubated at 37° C. and prodrug concentrations were analyzed by HPLC at various times as indicated above.
# Rate constants for the first-order disappearance of prodrugs were estimated from semi-log plots of the concentration of prodrug as a function of time. The spontaneous rate of liberation, for example, in aqueous solutions, of the AGT inactivator is much lower than the rate for β-glucuronidase catalyzed liberation, for example, about 10 times less, and preferably 100 times less. The spontaneous rate of liberation of the AGT inactivator from the prodrug is low, e.g., about 0.2 to about 0.5% by weight per hour.
# [6] = molecular target: T2, bovine liver β-glucuronidase (Bos taurus, UniProt A3KMY8); experiment: Enzymatic hydrolysis of prodrugs by bovine liver β-glucuronidase in MOPS buffer; format: biochemical; conditions: 10 units/mL bovine liver enzyme, FIG. 1A
# T2 construct: bovine liver β-glucuronidase (Sigma type B-10) (10.2 units/mg of protein); purchased Sigma type B-10; host or cells: bovine liver
# T2 sequence (A3KMY8 1-652): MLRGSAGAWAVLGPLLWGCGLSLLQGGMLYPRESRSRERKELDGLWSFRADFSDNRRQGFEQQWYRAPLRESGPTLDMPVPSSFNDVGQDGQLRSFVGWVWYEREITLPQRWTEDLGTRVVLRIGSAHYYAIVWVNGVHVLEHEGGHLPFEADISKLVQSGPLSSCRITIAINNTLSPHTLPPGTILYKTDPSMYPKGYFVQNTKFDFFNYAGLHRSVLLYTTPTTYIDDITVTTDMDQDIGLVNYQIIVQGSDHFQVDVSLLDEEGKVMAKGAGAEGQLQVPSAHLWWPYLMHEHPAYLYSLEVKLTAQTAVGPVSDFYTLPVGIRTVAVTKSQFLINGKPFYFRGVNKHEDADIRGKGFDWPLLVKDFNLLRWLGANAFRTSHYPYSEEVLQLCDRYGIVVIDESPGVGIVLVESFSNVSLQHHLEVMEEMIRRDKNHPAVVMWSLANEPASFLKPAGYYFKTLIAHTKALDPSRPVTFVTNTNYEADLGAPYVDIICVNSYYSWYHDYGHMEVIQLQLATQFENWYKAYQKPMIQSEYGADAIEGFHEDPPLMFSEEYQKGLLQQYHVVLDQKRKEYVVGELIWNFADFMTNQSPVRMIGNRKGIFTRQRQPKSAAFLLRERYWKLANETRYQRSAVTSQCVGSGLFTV
# Procedure: (§1) The enzymatic hydrolysis of the prodrugs was investigated with both E. coli and bovine liver β-glucuronidase in MOPS buffer at pH 7.0. Prodrugs and p-nitrobenzyl alcohol (HPLC internal standard) were dissolved in the MOPS buffer (pH 7.0) at 37° C. Enzymatic cleavage was initiated by adding 0.2 Fishman units of E. coli β-glucuronidase (Sigma type IX-A) (42.8 units/mg of protein) or 10 Fishman units of bovine liver β-glucuronidase (Sigma type B-10) (10.2 units/mg of protein) to the incubation buffer. Aliquots (100 μL) of the reaction mixture were withdrawn at various times and were mixed with 100 μL of acetonitrile/0.1 M TEAA (6:4) to quench the enzymatic reaction. Prodrug and product concentrations were determined by HPLC. For determination of enzyme kinetic parameters, prodrug solutions at concentrations between 5 and 300 μM were incubated with a fixed amount of enzyme. Aliquots were withdrawn at time intervals varying from 1 to 20 min and the reactions were quenched as described above. Initial reaction velocities were determined at each substrate concentration. Non-linear regression methods were used to determine KM and Vmax values. Data were processed with Prism 3.0 software.
# [7] = molecular target: T3, E. coli β-glucuronidase (Escherichia coli, UniProt P05804); experiment: Enzymatic hydrolysis of prodrugs by E. coli β-glucuronidase in MOPS buffer; format: biochemical; conditions: 0.2 unit/mL E. coli enzyme, FIG. 1B
# T3 construct: purchased Sigma type IX-A
# Procedure: as §1
# T3 sequence (P05804 whole entry): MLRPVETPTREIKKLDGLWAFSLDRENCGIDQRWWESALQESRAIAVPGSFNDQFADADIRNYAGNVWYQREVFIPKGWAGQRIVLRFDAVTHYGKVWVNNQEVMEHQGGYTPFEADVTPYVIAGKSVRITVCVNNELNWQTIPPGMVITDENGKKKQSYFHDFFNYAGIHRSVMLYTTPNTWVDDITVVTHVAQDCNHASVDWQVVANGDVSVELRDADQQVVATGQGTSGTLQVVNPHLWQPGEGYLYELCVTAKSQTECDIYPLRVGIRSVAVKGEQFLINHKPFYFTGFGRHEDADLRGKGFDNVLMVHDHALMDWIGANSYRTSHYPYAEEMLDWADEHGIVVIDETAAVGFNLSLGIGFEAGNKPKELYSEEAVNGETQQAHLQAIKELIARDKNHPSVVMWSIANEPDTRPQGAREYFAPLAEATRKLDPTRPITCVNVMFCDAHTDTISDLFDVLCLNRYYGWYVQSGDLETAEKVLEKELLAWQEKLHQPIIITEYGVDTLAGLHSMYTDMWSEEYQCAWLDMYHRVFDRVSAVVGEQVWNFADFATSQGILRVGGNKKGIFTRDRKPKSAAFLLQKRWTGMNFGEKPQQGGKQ
SMILES,solubility [1] [mg/mL],ED90 for HT29 cell killing by 40 μM BCNU following a 2-hr incubation with drug [2],stability under acidic conditions compared with O^6-benzylguanine [3],fold more water soluble than O^6-benzylguanine ([1]; relative to O^6-benzylguanine),IC50 [4] [µM],alkyltransferase inactivation in the presence of bovine liver β-glucuronidase [4],"Observed first order rate constant for hydrolysis, kTris [5] [min⁻¹]","Observed first order rate constant for hydrolysis, kMOPS [5] [min⁻¹]","Observed first order rate constant for hydrolysis, kPBS [5] [min⁻¹]",average half-time for decomposition ([5]; aqueous buffers of Table 1) [days],"Observed first order rate constant for hydrolysis, kDulbecco [5] [s⁻¹]",hydrolysis by the bovine liver enzyme (prodrug disappearance) [6],hydrolysis by the E. coli enzyme (prodrug disappearance) [7],HT29 cell killing by BCNU after prodrug without β-glucuronidase [2],HT29 cell killing by BCNU after prodrug with β-glucuronidase [2]
"NCc1ccc(COc2nc(N)nc3[nH]cnc23)cc1 [Compound 24, O^6-(4-Aminomethylbenzyl)guanine]",> 100,>>5 μM,,,,,,,,,,,,,
"NCc1cccc(COc2nc(N)nc3nc[nH]c23)c1 [Compound 25, O^6-(3-Aminomethylbenzyl)guanine]",> 100,1.75 µM,far more stable,at least 700 ×,,,,,,,,,,,
"Nc1nc(OCc2ccccc2)c2nc[nH]c2n1 [O^6-benzylguanine, reference compound]",0.1,0.75 µM,,,,,,,,,,,,,
"O=C(Nc1nc(OCc2ccccc2)c2nc[nH]c2n1)OCc1ccc(O[C@@H]2O[C@H](C(=O)O)[C@@H](O)[C@H](O)[C@H]2O)c([N+](=O)[O-])c1 [Prodrug 1, O^6-Benzyl-N-[[[[4′-[(-β-D-glucopyranuronosyl)oxy]-3′-nitrophenyl]methyl]oxy]carbonyl]guanine, monosodium salt]",,,,,> 50,efficient alkyltransferase inactivation,4.06e-06,3.77e-06,3.86e-06,~100,7.15e-08,rapid disappearance,rapid disappearance,quite resistant to killing,greatly sensitized to killing by BCNU
"O=C(Nc1nc(OCc2ccccc2)c2ncn([C@H]3C[C@H](O)[C@@H](CO)O3)c2n1)OCc1ccc(O[C@@H]2O[C@H](C(=O)O)[C@@H](O)[C@H](O)[C@H]2O)c([N+](=O)[O-])c1 [Prodrug 2, O^6-Benzyl-N^2-[[[[4″-[(β-D-glucopyranuronosyl)oxy]-3″-nitrophenyl]methyl]oxy]carbonyl]-2′-deoxyguanosine, monosodium salt]",,,,,> 50,efficient alkyltransferase inactivation,1.55e-07,1.88e-07,6.46e-07,,7.8e-09,rapid disappearance,rapid disappearance,quite resistant to killing,much greater cell killing by BCNU
